The target in this assay is T1, Human recombinant 5-HT7 receptor (Homo sapiens, UniProt P34969).
T1 construct: expressed in transfected cells; host or cells: CHO cells (membrane preparation)
Put plainly: Binding affinity for 5-HT7 serotonin receptor ([3H]LSD radioligand binding). Conditions: 1 nM [3H]LSD, human recombinant 5-HT7 receptor expressed in CHO cells; for Ki: 25° C., 90 minutes; for inhibition at 10 µM: 10 μM test compound. The procedure: % inhibition at 10 μM and binding affinity (Ki) of the novel compound represented by the Chemical Formula 1 according to the present disclosure for the 5-HT7 serotonin receptor were measured as follows.
Human recombinant 5-HT7 receptor expressed in CHO cells was used. A reaction mixture (final concentration 0.25 mL) prepared from 1 nM [^3H]LSD, 5-HT7 receptor membrane (15 μg/well), test compound of various concentrations and 50 mM Tris-HCl buffer (pH 7.4) containing 10 mM MgCl2 and 0.1 mM EDTA was incubated at 25° C. for 90 minutes. After the incubation, reaction was terminated by rapid filtration through Whatman GF/C glass fiber filter previously soaked in 0.3% polyethyleneimine using a Brandel harvester and washed with cold 50 mM Tris-HCl buffer. The filter was covered with MeltiLex, sealed in a sample bag and dried in an oven. Counting was carried out using MicroBeta (Wallac). Nonspecific binding was measured in the presence of 0.5 μM mianserin. The Ki value of the test compound was obtained from nonlinear regression analysis (GraphPad Prism Program, San Diego, USA) of isotherms obtained by repeating experiments 3 times in duplicate test tubes at 10-11 varied concentrations.
The % inhibition at 10 μM and binding affinity (Ki) of the novel compound according to the present disclosure for the 5-HT7 serotonin receptor are given in Table 1.

Usually Ki stands for a measure of affinity in units of concentration, obtained from inhibition or displacement. What is called inhibition is the change of the read-out against control, counted positive when it falls.

T1 sequence (P34969 whole entry): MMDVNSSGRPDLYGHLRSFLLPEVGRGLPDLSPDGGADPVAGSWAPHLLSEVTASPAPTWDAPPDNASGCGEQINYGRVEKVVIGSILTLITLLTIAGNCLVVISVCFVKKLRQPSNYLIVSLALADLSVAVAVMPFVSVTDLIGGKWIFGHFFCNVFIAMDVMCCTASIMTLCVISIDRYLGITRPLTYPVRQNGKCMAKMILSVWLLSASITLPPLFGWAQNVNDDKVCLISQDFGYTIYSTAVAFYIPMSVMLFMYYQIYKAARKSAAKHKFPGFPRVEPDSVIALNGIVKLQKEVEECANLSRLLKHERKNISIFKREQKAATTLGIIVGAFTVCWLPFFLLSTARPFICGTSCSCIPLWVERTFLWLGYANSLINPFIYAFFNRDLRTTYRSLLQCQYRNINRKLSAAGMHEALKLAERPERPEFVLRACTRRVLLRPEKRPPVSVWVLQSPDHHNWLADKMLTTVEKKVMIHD

As for `c1ccc(-c2ccccc2CN2CCN(c3ccccc3)CC2)cc1` [Compound 1, 1-(biphenyl-2-ylmethyl)-4-phenylpiperazine], the inhibition constant Ki stood at 537 nM and the inhibition at 10 µM amounted to 59.7%.
`COc1ccccc1N1CCN(Cc2ccccc2-c2ccccc2)CC1` [Compound 8, 1-(biphenyl-2-ylmethyl)-4-(2-methoxyphenyl)piperazine]: the Ki is 432 nM and the inhibition at 10 µM came to 95.1%.
On the same counts, the results for `CCOc1ccccc1N1CCN(Cc2ccccc2-c2ccccc2)CC1` [Compound 9, 1-(biphenyl-2-ylmethyl)-4-(2-ethoxyphenyl)piperazine] are 192 nM and 86.2%.
For `Cc1ccc(C)c(N2CCN(Cc3ccccc3-c3ccccc3)CC2)c1` [Compound 21, 1-(biphenyl-2-ylmethyl)-4-(2,5-dimethylphenyl)piperazine] the same measures were 658 nM and 93.8%.
For `Cc1cc(C)cc(N2CCN(Cc3ccccc3-c3ccccc3)CC2)c1` [Compound 22, 1-(biphenyl-2-ylmethyl)-4-(3,5-dimethylphenyl)piperazine] the same measures were 367 nM and 84%.
For the molecule `CC(C)c1ccccc1N1CCN(Cc2ccccc2-c2ccccc2)CC1` [Compound 23, 1-(biphenyl-2-ylmethyl)-4-(2-isopropylphenyl)piperazine], the Ki worked out at 274 nM and the inhibition at 10 µM turned out to be 87%.
`c1ccc(-c2ccccc2CN2CCN(c3ccccc3-c3ccccc3)CC2)cc1` [Compound 24, 1-(biphenyl-2-ylmethyl)-4-(biphenyl-2-yl)piperazine]: the Ki worked out at 256 nM and the inhibition at 10 µM was found to be 93.8%.
On to `FC(F)(F)c1cccc(N2CCN(Cc3ccccc3-c3ccccc3)CC2)c1` [Compound 25, 1-(biphenyl-2-ylmethyl)-4-(3-(trifluoromethyl)phenyl)piperazine], for which the inhibition constant (Ki) worked out at 64 nM and the inhibition at 10 µM is 95.9%.
In the case of `Fc1cccc(N2CCN(Cc3cccc(-c4ccccc4)c3)CC2)c1` [Compound 36, 1-(biphenyl-3-ylmethyl)-4-(3-fluorophenyl)piperazine], the Ki came out at 79 nM and the inhibition at 10 µM stood at 91.3%.
Take `Clc1ccccc1N1CCN(Cc2cccc(-c3ccccc3)c2)CC1` [Compound 38, 1-(biphenyl-3-ylmethyl)-4-(2-chlorophenyl)piperazine]: the inhibitory constant (Ki) was 66 nM and the inhibition at 10 µM worked out at 88.3%.
Take `Cc1cccc(N2CCN(Cc3cccc(-c4ccccc4)c3)CC2)c1` [Compound 47, 1-(biphenyl-3-ylmethyl)-4-(3-methylphenyl)piperazine]: the Ki stood at 15 nM and the inhibition at 10 µM stood at 95.4%.

These data come from patent publication US8883796B2, “Biphenyl derivatives, pharmaceutical composition comprising the same, and preparation method thereof” (Korea Institute of Science and Technology, priority 2013, dated 2014).
